Patent US4552889A, “3-Mercaptomethyl-2-oxo-1-pyrrolidine acetic acids and use for hypertension” (Eli Lilly and Company, priority 1983, dated 1985)

These molecules were tested against T1, Angiotensin Converting Enzyme (Oryctolagus cuniculus, UniProt P12822) (assay: Inhibition of Angiotensin Converting Enzyme (fluorometric histidylleucine release from angiotensin I)). Conditions: enzyme from rabbit lung; human angiotensin I substrate; pH 7.5; 30 minutes at 37° C; inhibitor range 10^-4 to 10^-9 M; read-out: Concentration giving 50% Inhibition of Conversion of Angiotensin I to Angiotensin II.
T1 construct: The enzyme was isolated from rabbit lung and purified via calcium phosphate gel; from tissue; host or cells: rabbit lung
T1 sequence (P12822 34-1310): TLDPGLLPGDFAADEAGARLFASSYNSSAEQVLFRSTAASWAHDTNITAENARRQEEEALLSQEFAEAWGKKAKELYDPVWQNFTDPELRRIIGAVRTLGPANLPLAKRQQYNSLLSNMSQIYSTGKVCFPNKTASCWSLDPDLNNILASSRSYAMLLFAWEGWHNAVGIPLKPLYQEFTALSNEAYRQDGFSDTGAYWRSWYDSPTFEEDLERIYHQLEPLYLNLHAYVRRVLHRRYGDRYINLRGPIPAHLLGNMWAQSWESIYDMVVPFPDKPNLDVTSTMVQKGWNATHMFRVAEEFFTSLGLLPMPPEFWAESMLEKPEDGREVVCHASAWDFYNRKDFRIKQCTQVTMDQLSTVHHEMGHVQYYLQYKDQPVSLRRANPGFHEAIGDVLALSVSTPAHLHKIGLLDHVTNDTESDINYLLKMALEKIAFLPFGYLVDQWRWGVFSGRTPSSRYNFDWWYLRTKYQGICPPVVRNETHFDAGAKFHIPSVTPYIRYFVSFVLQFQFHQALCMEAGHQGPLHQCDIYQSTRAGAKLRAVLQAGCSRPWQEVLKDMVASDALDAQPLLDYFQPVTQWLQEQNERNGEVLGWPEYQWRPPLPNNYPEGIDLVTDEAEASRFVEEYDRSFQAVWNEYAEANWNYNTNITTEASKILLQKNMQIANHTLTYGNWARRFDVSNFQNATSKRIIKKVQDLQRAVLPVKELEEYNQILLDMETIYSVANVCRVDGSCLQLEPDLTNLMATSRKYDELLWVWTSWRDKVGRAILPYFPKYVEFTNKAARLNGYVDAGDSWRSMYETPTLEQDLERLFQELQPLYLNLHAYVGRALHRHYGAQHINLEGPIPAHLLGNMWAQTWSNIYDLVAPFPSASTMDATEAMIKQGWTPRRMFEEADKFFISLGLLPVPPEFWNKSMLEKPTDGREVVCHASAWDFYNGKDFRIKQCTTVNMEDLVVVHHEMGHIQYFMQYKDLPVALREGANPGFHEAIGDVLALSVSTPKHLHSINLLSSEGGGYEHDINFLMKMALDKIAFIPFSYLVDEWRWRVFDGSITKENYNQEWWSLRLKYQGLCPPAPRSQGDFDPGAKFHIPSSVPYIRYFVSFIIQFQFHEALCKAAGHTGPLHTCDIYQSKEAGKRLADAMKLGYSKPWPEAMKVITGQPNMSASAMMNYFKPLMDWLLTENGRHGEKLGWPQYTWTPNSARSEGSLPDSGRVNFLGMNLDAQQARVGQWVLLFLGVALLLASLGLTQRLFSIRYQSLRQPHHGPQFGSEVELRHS
Type: biochemical
Text: The compounds are useful in the treatment of hypertension and congestive heart failure by virtue of their ability to inhibit angiotensin converting enzyme. […] Certain compounds of the present invention were examined as to their ability to inhibit angiotensin converting enzyme in the following test system.
ASSAY OF INHIBITORS OF ANGIOTENSIN CONVERTING ENZYME
The procedure for the assay of angiotensin I converting enzyme activity was essentially that described by Cheung and Cushman, Biochemica et Biophysica Acta, 293, 451-463 (1973). The enzyme was isolated from rabbit lung and purified via calcium phosphate gel, and DEAE-cellulose column chromatography. Human angiotensin I was employed as the substrate. The assay is dependent on the fluorometric measurement of the rate of release of the dipeptide histidylleucine from the substrate by the enzyme when the released dipeptide is reacted with o-phthalicdicarboxaldehyde. A standard curve is prepared with known quantities of histidylleucine.
Incubations were conducted at 37° C. in 13×100 mm. test tubes containing a final volume of 250 μl. The conditions of the assay employed were as follows: 100 μl. of 0.3 mM angiotensin I dissolved in saline-phosphate buffer (30 mM NaCl, 100 mM potassium phosphate, pH 7.5) and 50 μl. of saline-phosphate buffer (or test compound dissolved in the buffer) were allowed to stand at least three minutes at ambient temperature. The enzymic reaction was initiated by adding 100 μl. of enzyme solution containing 25 to 50 μg. protein/ml., determined by the Lowry method. The tubes were incubated for 30 minutes at 37° C. The reaction was terminated by adding 1.45 ml. of 300 mM NaOH followed with 100 μl. of 0.2 percent o-phthalicdicarboxaldehyde in methanol. After ten minutes, 200 μl. of 3M HCl were added. The final volume in the tubes was 2 ml. Fluorometric determinations (365 nm excitation and 500 nm emission) were made after 30 minutes but within 90 minutes after termination of the reaction.
The concentration of the inhibitors were adjusted so that a range of concentrations of 10^-4 to 10^-9 M was obtained in the reaction tubes. Inhibition was measured by the decrease in activity from that of control tubes without inhibitor. Activity was recorded as the molar concentration of inhibitor producing a 50 percent decrease in converting enzyme activity relative to the controls and is summarized in Table I.

Row | IC50 | Structure (SMILES)
1 | 1 µM | C[C@@H](C(=O)O)N1CCC(C)(CS)C1=O (stereo partly drawn) [Example 1, (αS)-3-(mercaptomethyl)-α,3-dimethyl-2-oxo-1-pyrrolidineacetic acid]
2 | 5 µM | C[C@@H](C(=O)O)N1CC[C@](CS)(Cc2ccccc2)C1=O [Example 3, (αS,3R)-3-(mercaptomethyl)-α-methyl-2-oxo-3-benzyl-1-pyrrolidineacetic acid]
3 | > 100 µM | C[C@@H](C(=O)O)N1CC[C@@](CS)(Cc2ccccc2)C1=O [Example 4, (S,S)-3-(mercaptomethyl)-α-methyl-2-oxo-3-benzyl-1-pyrrolidine-acetic acid]
4 | 2 µM | CCC1(CS)CCN([C@@H](C)C(=O)O)C1=O (stereo partly drawn) [Example 2, (αS)-3-ethyl-3-(mercaptomethyl)-α-methyl-2-oxo-1-pyrrolidineacetic acid]
